Experimental data from EPA's ToxValDB 9.5.

Tested on: Rattus norvegicus
Conditions: short-term, duration: 28 days, oral, gavage, Sprague-Dawley

## O=S(=O)(O)C(F)(F)C(F)(F)C(F)(F)C(F)(F)F [Perfluorobutanesulfonic acid]
F, Clinical chemistry_Alanine aminotransferase
  LOEL: 250 mg/kg-day
F, Clinical chemistry_Albumin
  NOEL: 1000 mg/kg-day
F, Clinical chemistry_Albumin/globulin ratio
  NOEL: 1000 mg/kg-day
F, Clinical chemistry_Alkaline phosphatase
  LOEL: 500 mg/kg-day
F, Clinical chemistry_Aspartate aminotransferase
  LOEL: 500 mg/kg-day
F, Clinical chemistry_Cholesterol
  LOEL: 500 mg/kg-day
F, Clinical chemistry_Direct bilirubin
  LOEL: 500 mg/kg-day
F, Clinical chemistry_Free thyroxine
  LOEL: 62.6 mg/kg-day
F, Clinical chemistry_Globulin
  NOEL: 1000 mg/kg-day
F, Clinical chemistry_Sorbitol dehydrogenase
  NOEL: 1000 mg/kg-day
F, Clinical chemistry_Testosterone
  NOEL: 1000 mg/kg-day
F, Clinical chemistry_Thyroid stimulating hormone
  NOEL: 1000 mg/kg-day
F, Clinical chemistry_Total bile acids
  LOEL: 250 mg/kg-day
F, Clinical chemistry_Total bilirubin
  LOEL: 500 mg/kg-day
F, Clinical chemistry_Total protein
  NOEL: 1000 mg/kg-day
F, Clinical chemistry_Total thyroxine
  LOEL: 62.6 mg/kg-day
F, Clinical chemistry_Total triiodothyronine
  LOEL: 62.6 mg/kg-day
F, Clinical chemistry_Triglycerides
  NOEL: 1000 mg/kg-day
F, Gene expression_Acox1
  LOEL: 250 mg/kg-day
F, Gene expression_Cyp2b1
  LOEL: 62.6 mg/kg-day
F, Gene expression_Cyp2b2
  LOEL: 62.6 mg/kg-day
F, Gene expression_Cyp4a1
  LOEL: 62.6 mg/kg-day
F, Hematology_Erythrocytes
  NOEL: 1000 mg/kg-day
F, Hematology_Hematocrit
  NOEL: 1000 mg/kg-day
F, Hematology_Hemoglobin
  NOEL: 1000 mg/kg-day
F, Hematology_Leukocytes
  NOEL: 1000 mg/kg-day
F, Hematology_Reticulocytes
  LOEL: 125 mg/kg-day
F, Hematology_S. neutrophils
  NOEL: 1000 mg/kg-day
F, Nonneoplastic effects_Bone marrow - Hypocellularity
  LOEL: 1000 mg/kg-day
F, Nonneoplastic effects_Kidney - Papilla, necrosis
  LOEL: 1000 mg/kg-day
F, Nonneoplastic effects_Liver - Hepatocyte, cytoplasmic alteration
  LOEL: 500 mg/kg-day
F, Nonneoplastic effects_Liver - Hepatocyte, hypertrophy
  LOEL: 500 mg/kg-day
F, Nonneoplastic effects_Liver - Hepatocyte, vacuolization cytoplasmic
  NOEL: 1000 mg/kg-day
F, Nonneoplastic effects_Liver - Necrosis
  LOEL: 1000 mg/kg-day
F, Nonneoplastic effects_Nose - Olfactory epithelium, degeneration
  LOEL: 125 mg/kg-day
F, Nonneoplastic effects_Nose - Olfactory epithelium, hyperplasia
  LOEL: 250 mg/kg-day
F, Nonneoplastic effects_Nose - Olfactory epithelium, inflammation, suppurative
  LOEL: 1000 mg/kg-day
F, Nonneoplastic effects_Nose - Olfactory epithelium, necrosis
  LOEL: 1000 mg/kg-day
F, Nonneoplastic effects_Spleen - Extramedullary hematopoiesis, decreased
  NOEL: 1000 mg/kg-day
F, Nonneoplastic effects_Stomach, forestomach - Epithelium, hyperplasia
  NOEL: 1000 mg/kg-day
F, Nonneoplastic effects_Thymus - Atrophy
  LOEL: 1000 mg/kg-day
F, Organ weights_Heart - Absolute
  LOEL: 500 mg/kg-day
F, Organ weights_Heart - Relative
  NOEL: 1000 mg/kg-day
F, Organ weights_Liver - Absolute
  LOEL: 250 mg/kg-day
F, Organ weights_Liver - Relative
  LOEL: 125 mg/kg-day
F, Organ weights_Lung - Absolute
  NOEL: 1000 mg/kg-day
F, Organ weights_Lung - Relative
  NOEL: 1000 mg/kg-day
F, Organ weights_R. adrenal gland - Absolute
  NOEL: 1000 mg/kg-day
F, Organ weights_R. adrenal gland - Relative
  NOEL: 1000 mg/kg-day
F, Organ weights_R. kidney - Absolute
  NOEL: 1000 mg/kg-day
F, Organ weights_R. kidney - Relative
  LOEL: 62.6 mg/kg-day
F, Organ weights_Spleen - Absolute
  LOEL: 500 mg/kg-day
F, Organ weights_Spleen - Relative
  NOEL: 1000 mg/kg-day
F, Organ weights_Thymus - Absolute
  LOEL: 500 mg/kg-day
F, Organ weights_Thymus - Relative
  NOEL: 1000 mg/kg-day
F, Reproductive toxicity_Altered estrous cyclicity
  LOEL: 250 mg/kg-day
F, Survival rates
  LOEL: 250 mg/kg-day
F, body weight
  LOEL: 1000 mg/kg-day
M, Clinical chemistry_Alanine aminotransferase
  LOEL: 500 mg/kg-day
M, Clinical chemistry_Albumin
  NOEL: 1000 mg/kg-day
M, Clinical chemistry_Albumin/globulin ratio
  LOEL: 62.6 mg/kg-day
M, Clinical chemistry_Alkaline phosphatase
  LOEL: 250 mg/kg-day
M, Clinical chemistry_Aspartate aminotransferase
  LOEL: 500 mg/kg-day
M, Clinical chemistry_Cholesterol
  LOEL: 62.6 mg/kg-day
M, Clinical chemistry_Direct bilirubin
  LOEL: 500 mg/kg-day
M, Clinical chemistry_Free thyroxine
  LOEL: 62.6 mg/kg-day
M, Clinical chemistry_Globulin
  LOEL: 62.6 mg/kg-day
M, Clinical chemistry_Sorbitol dehydrogenase
  LOEL: 500 mg/kg-day
M, Clinical chemistry_Testosterone
  NOEL: 1000 mg/kg-day
M, Clinical chemistry_Thyroid stimulating hormone
  NOEL: 1000 mg/kg-day
M, Clinical chemistry_Total bile acids
  LOEL: 500 mg/kg-day
M, Clinical chemistry_Total bilirubin
  NOEL: 1000 mg/kg-day
M, Clinical chemistry_Total protein
  LOEL: 62.6 mg/kg-day
M, Clinical chemistry_Total thyroxine
  LOEL: 62.6 mg/kg-day
M, Clinical chemistry_Total triiodothyronine
  LOEL: 62.6 mg/kg-day
M, Clinical chemistry_Triglycerides
  LOEL: 500 mg/kg-day
M, Gene expression_Acox1
  LOEL: 125 mg/kg-day
M, Gene expression_Acyl-CoA oxidase
  LOEL: 250 mg/kg-day
M, Gene expression_Cyp2b1
  LOEL: 62.6 mg/kg-day
M, Gene expression_Cyp2b2
  LOEL: 62.6 mg/kg-day
M, Gene expression_Cyp4a1
  LOEL: 62.6 mg/kg-day
M, Hematology_Erythrocytes
  LOEL: 125 mg/kg-day
M, Hematology_Hematocrit
  LOEL: 125 mg/kg-day
M, Hematology_Hemoglobin
  LOEL: 125 mg/kg-day
M, Hematology_Leukocytes
  NOEL: 1000 mg/kg-day
M, Hematology_Reticulocytes
  LOEL: 125 mg/kg-day
M, Hematology_S. neutrophils
  NOEL: 1000 mg/kg-day
M, Nonneoplastic effects_Bone marrow - Hypocellularity
  LOEL: 1000 mg/kg-day
M, Nonneoplastic effects_Kidney - Papilla, necrosis
  LOEL: 1000 mg/kg-day
M, Nonneoplastic effects_Liver - Hepatocyte, cytoplasmic alteration
  LOEL: 500 mg/kg-day
M, Nonneoplastic effects_Liver - Hepatocyte, hypertrophy
  LOEL: 125 mg/kg-day
M, Nonneoplastic effects_Liver - Hepatocyte, vacuolization cytoplasmic
  NOEL: 1000 mg/kg-day
M, Nonneoplastic effects_Liver - Necrosis
  LOEL: 1000 mg/kg-day
M, Nonneoplastic effects_Nose - Olfactory epithelium, degeneration
  LOEL: 250 mg/kg-day
M, Nonneoplastic effects_Nose - Olfactory epithelium, hyperplasia
  LOEL: 250 mg/kg-day
M, Nonneoplastic effects_Nose - Olfactory epithelium, inflammation, suppurative
  LOEL: 1000 mg/kg-day
M, Nonneoplastic effects_Nose - Olfactory epithelium, necrosis
  LOEL: 1000 mg/kg-day
M, Nonneoplastic effects_Spleen - Extramedullary hematopoiesis, decreased
  NOEL: 1000 mg/kg-day
M, Nonneoplastic effects_Stomach, forestomach - Epithelium, hyperplasia
  LOEL: 1000 mg/kg-day
M, Nonneoplastic effects_Thymus - Atrophy
  LOEL: 1000 mg/kg-day
M, Organ weights_Heart - Absolute
  LOEL: 500 mg/kg-day
M, Organ weights_Heart - Relative
  LOEL: 500 mg/kg-day
M, Organ weights_Liver - Absolute
  LOEL: 125 mg/kg-day
M, Organ weights_Liver - Relative
  LOEL: 62.6 mg/kg-day
M, Organ weights_Lung - Absolute
  NOEL: 1000 mg/kg-day
M, Organ weights_Lung - Relative
  NOEL: 1000 mg/kg-day
M, Organ weights_R. adrenal gland - Absolute
  NOEL: 1000 mg/kg-day
M, Organ weights_R. adrenal gland - Relative
  NOEL: 1000 mg/kg-day
M, Organ weights_R. kidney - Absolute
  LOEL: 500 mg/kg-day
M, Organ weights_R. kidney - Relative
  LOEL: 500 mg/kg-day
M, Organ weights_Spleen - Absolute
  NOEL: 1000 mg/kg-day
M, Organ weights_Spleen - Relative
  NOEL: 1000 mg/kg-day
M, Organ weights_Thymus - Absolute
  LOEL: 500 mg/kg-day
M, Organ weights_Thymus - Relative
  LOEL: 500 mg/kg-day
M, Reproductive toxicity_Altered sperm parameters
  NOEL: 1000 mg/kg-day
M, Survival rates
  LOEL: 1000 mg/kg-day
M, body weight
  LOEL: 1000 mg/kg-day
